Experimental data: ChEMBL document CHEMBL1743341, “Cytochrome p450 enzymes mechanism based inhibitors: common sub-structures and reactivity” (Curr Drug Metab, 2005)
pKi: −log10 of the molar value. Each block holds one compound with its values, some of them ahead of it.

Tests used:
Format in all cases: ADME
Cytochrome P450 1A1 [1] = target: T1, Cytochrome P450 1A1 (Homo sapiens, UniProt P04798); assay: Mechanism based inhibition of human cytochrome P450 1A1 measured by 7-ethoxyresorufin O-deethylation (EROD)
T1 sequence (P04798 whole entry): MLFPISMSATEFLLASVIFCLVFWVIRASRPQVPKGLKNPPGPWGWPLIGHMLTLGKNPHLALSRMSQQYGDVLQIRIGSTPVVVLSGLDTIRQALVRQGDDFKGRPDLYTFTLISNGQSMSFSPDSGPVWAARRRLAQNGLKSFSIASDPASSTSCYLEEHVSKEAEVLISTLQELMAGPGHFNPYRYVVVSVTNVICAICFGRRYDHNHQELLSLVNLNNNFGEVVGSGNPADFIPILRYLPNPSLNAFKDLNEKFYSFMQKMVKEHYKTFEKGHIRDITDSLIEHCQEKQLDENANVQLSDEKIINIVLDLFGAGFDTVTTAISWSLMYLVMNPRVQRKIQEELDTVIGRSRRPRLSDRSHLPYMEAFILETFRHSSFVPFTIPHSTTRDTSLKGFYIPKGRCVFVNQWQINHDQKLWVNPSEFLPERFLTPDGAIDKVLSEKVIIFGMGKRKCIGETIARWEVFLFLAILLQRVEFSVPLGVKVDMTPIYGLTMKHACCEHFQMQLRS

Cytochrome P450 3A4 [2] = target: T2, Cytochrome P450 3A4 (Homo sapiens, UniProt P08684); assay: (§1) Mechanism based inhibition of human cytochrome P450 3A4 measured by testosterone 6-beta hydroxylation
CYP3A4 [3] = target: T3, CYP3A4 (Homo sapiens, UniProt P08684); assay: (§2) Mechanism based inhibition of human cytochrome P450 3A4 measured by (14C)formaldehyde production from (N-methyl-14C)-erythromycin; settings: human, probe (N-methyl-14C)-erythromycin
Cytochrome P450 3A4 [4] = target: T2, Cytochrome P450 3A4; assay: as §2
Cytochrome P450 1A1 [5] = target: T4, Cytochrome P450 1A1 (Rattus norvegicus, UniProt P00185); assay: (§3) Mechanism based inhibition of rat cytochrome P450 CYP1A1 measured by 7-ethoxyresorufin O-deethylation (EROD)
T4 sequence (P00185 whole entry): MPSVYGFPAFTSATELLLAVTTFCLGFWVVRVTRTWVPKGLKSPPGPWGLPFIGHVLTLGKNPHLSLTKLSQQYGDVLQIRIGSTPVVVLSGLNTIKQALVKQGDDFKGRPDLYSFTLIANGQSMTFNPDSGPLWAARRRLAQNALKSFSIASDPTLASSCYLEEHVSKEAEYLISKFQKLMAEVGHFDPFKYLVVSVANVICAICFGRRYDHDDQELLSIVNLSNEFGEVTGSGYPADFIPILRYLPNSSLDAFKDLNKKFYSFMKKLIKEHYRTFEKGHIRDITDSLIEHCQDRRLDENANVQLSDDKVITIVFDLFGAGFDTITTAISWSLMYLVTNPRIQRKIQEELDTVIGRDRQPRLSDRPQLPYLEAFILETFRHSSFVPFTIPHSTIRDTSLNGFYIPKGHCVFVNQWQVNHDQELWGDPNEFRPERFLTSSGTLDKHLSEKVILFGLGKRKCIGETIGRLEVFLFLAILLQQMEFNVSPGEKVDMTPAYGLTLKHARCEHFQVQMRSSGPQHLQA

CYP1A1 = target: T5, CYP1A1 (Rattus norvegicus, UniProt P00185); assay: as §3; settings: rat, probe 7-ethoxyresorufin (O-deethylation, EROD)
T5 sequence (P00185 whole entry): T4 sequence (P00185 whole entry)

CYP2A6 = target: T6, CYP2A6 (Homo sapiens, UniProt P11509); assay: (§4) Mechanism based inhibition of human cytochrome P450 2A6 measured by coumarin 7-hydroxylation
T6 sequence (P11509 whole entry): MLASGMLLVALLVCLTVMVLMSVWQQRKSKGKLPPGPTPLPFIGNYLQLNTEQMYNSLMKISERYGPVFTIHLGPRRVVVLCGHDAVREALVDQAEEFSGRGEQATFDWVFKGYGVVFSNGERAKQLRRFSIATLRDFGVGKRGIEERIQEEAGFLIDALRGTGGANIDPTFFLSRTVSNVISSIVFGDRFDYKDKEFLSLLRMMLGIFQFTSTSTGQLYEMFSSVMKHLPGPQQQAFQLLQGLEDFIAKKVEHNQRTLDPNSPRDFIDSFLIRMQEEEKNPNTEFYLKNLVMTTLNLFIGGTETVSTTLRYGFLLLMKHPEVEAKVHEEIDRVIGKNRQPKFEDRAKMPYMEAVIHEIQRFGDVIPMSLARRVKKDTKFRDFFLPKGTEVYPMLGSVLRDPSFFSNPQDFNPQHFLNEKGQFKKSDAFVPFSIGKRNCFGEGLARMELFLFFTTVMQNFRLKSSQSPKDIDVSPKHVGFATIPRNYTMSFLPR

Cytochrome P450 2A6 = target: T7, Cytochrome P450 2A6 (Homo sapiens, UniProt P11509); assay: as §4
T7 sequence (P11509 whole entry): T6 sequence (P11509 whole entry)

Cytochrome P450 1A2 = target: T8, Cytochrome P450 1A2 (Homo sapiens, UniProt P05177); assay: Mechanism based inhibition of human cytochrome P450 1A2 measured by 7-ethoxyresorufin O-deethylation (EROD)
T8 sequence (P05177 whole entry): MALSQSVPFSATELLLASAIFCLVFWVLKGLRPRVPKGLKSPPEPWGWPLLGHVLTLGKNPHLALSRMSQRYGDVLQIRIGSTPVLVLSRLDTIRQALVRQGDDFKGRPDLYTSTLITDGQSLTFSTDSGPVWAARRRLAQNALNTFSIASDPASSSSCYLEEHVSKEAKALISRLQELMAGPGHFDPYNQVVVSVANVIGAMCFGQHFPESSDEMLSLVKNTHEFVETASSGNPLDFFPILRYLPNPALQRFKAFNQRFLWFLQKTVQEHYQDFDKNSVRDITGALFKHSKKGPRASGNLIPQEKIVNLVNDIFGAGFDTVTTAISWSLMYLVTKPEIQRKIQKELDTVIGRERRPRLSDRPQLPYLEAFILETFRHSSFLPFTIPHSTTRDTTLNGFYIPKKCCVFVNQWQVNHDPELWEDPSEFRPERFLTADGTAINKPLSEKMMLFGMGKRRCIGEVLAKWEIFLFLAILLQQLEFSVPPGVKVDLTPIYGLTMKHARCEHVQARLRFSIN

CYP3A4 [6] = target: T3, CYP3A4; assay: as §1; settings: probe testosterone (6-beta hydroxylation)

T2 sequence (P08684 whole entry): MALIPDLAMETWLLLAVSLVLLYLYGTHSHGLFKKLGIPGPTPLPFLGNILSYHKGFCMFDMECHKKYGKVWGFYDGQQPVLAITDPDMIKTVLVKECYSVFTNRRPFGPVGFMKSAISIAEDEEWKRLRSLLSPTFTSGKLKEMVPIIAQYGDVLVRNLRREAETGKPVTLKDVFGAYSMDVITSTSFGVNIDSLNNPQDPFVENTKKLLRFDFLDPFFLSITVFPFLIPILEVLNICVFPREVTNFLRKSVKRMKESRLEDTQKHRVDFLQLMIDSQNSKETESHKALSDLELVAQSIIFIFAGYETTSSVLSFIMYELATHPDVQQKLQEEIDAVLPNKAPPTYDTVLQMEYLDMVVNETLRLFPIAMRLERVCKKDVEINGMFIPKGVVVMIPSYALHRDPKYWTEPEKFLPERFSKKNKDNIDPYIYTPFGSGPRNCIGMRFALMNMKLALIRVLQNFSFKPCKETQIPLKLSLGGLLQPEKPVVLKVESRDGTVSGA
T3 sequence (P08684 whole entry): as above

SMILES: Oc1ccc(/C=C/c2cc(O)cc(O)c2)cc1 [RESVERATROL]
- mechanism based inhibition (Cytochrome P450 1A1 [1]): Cytochrome P450 mechanistic inhibitor: PMID 11259321
- mechanism based inhibition (Cytochrome P450 3A4 [2]): Cytochrome P450 mechanistic inhibitor: PMID 11701226

- kinact (CYP3A4 [3]): 0.00645 s⁻¹
- pKi (Cytochrome P450 3A4 [4]): 3.97
SMILES: O=c1c2ccccc2nc2n1CCc1c-2[nH]c2ccccc12 [RUTAECARPINE]

- kinact (CYP3A4 [3]): 0.00525 s⁻¹
- pKi (Cytochrome P450 3A4 [4]): 6.43
SMILES: O=C1OC[C@H](Cc2ccc3c(c2)OCO3)[C@H]1Cc1ccc2c(c1)OCO2 [HINOKININ]

- kinact (CYP3A4 [3]): 0.00517 s⁻¹
- pKi (Cytochrome P450 3A4 [4]): 7.27
SMILES: COc1cc(C[C@@H](CO)[C@H](CO)Cc2ccc3c(c2)OCO3)cc(OC)c1OC

SMILES: C#Cc1ccc2ccc3cccc4ccc1c2c34
- pKi (Cytochrome P450 1A1 [5]): 7.70
- kinact (CYP1A1): 0.00117 s⁻¹

SMILES: Cn1cccc1-c1cccnc1 [NICOTYRINE]
- kinact (CYP2A6; probe coumarin): 0.104 s⁻¹

- pKi (Cytochrome P450 2A6): 4.57
- kinact (CYP2A6; human, probe coumarin (7-hydroxylation)): 0.00233 s⁻¹
SMILES: COc1c2c(cc3ccc(=O)oc13)CCO2

SMILES: C#Cc1ccc2c(ccc3ccccc32)c1
- pKi (Cytochrome P450 1A1 [5]): 6.60
- kinact (CYP1A1): 0.0133 s⁻¹

SMILES: Cc1cc(C)c(SCC[n+]2noc([O-])c2C)c(C)c1
- mechanism based inhibition (Cytochrome P450 1A1 [1]): Cytochrome P450 mechanistic inhibitor: PMID 9107543
- mechanism based inhibition (Cytochrome P450 1A2): Cytochrome P450 mechanistic inhibitor: PMID 9107543
- mechanism based inhibition (Cytochrome P450 3A4 [2]): Cytochrome P450 mechanistic inhibitor: PMID 9107543

- kinact (CYP3A4 [6]; human): 0.00117 s⁻¹
- pKi (Cytochrome P450 3A4 [2]): 5.10
SMILES: CNCCCC(C#N)(c1ccc(OC)c(OC)c1)C(C)C (centres undefined)

SMILES: C#Cc1ccc2ccc3ccccc3c2c1
- pKi (Cytochrome P450 1A1 [5]): 7.05
- kinact (CYP1A1): 0.00167 s⁻¹

- pKi (Cytochrome P450 1A1 [5]): 6.27
- kinact (CYP1A1): 0.00833 s⁻¹
SMILES: CC#CCCCc1ccccc1

SMILES: CN1CCC[C@H]1c1cccnc1 [NICOTINE]
- kinact (CYP2A6; probe coumarin): 1.18 s⁻¹

- kinact (CYP3A4 [6]): 0.000785 s⁻¹
SMILES: NNc1nnc(NN)c2ccccc12 [DIHYDRALAZINE]

SMILES: COc1cc(C[C@H]2C(=O)OC[C@@H]2Cc2ccc3c(c2)OCO3)cc(OC)c1OC
- kinact (CYP3A4 [3]): 0.00533 s⁻¹
- pKi (Cytochrome P450 3A4 [4]): 6.75

SMILES: C#C [ETHYNE]
- mechanism based inhibition (Cytochrome P450 1A2): Cytochrome P450 mechanistic inhibitor: PMID 9760279
